Consider 33 compounds from US20100105655A1, “NOVEL COMPOUNDS 515” (ASTRAZENECA AB, priority 2008, published 2010).

T1 sequence (P08069 31-1367): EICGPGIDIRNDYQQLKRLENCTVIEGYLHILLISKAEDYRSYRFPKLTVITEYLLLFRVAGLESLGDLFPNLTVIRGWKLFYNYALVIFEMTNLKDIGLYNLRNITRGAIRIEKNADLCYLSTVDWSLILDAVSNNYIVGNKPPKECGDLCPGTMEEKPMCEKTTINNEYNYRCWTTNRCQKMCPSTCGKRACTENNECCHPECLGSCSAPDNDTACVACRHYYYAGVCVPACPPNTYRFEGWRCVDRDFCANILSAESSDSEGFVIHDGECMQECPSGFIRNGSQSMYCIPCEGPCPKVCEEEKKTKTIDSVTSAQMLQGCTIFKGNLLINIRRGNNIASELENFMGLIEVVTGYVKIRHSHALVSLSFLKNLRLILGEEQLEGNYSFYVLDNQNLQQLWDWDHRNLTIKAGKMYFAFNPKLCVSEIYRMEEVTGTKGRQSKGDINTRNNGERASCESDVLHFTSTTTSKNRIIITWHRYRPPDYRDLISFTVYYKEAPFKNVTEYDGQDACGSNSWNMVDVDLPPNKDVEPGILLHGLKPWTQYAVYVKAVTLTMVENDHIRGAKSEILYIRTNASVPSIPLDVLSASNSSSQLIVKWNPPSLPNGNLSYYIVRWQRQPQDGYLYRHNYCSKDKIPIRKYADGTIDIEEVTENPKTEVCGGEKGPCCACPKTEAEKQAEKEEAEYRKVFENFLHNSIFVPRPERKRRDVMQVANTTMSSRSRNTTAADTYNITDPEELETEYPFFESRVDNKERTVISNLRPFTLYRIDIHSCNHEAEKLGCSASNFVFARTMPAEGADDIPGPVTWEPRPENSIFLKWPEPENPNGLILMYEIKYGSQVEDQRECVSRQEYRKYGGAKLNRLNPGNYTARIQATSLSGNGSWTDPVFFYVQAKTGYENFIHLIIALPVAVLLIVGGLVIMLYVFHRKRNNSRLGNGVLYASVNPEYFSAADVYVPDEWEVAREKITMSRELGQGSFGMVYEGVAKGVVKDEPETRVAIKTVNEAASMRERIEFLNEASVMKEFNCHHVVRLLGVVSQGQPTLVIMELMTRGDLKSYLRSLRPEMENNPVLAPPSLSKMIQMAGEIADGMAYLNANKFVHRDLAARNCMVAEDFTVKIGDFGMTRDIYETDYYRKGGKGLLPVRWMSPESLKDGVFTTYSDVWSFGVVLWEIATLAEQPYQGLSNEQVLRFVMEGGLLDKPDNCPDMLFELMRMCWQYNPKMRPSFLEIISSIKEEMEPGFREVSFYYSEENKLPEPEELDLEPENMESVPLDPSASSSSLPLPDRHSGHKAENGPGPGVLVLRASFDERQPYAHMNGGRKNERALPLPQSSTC

This experiment has as its target T1, IGFR kinase (Homo sapiens, UniProt P08069).
T1 construct: purchased Millipore
The experiment can be described thus: Enzyme assay (c), IGFR kinase, Caliper LabChip. It is filed as biochemical. Conditions: 30 nM IGFR kinase, 6 uM ATP, 3 uM peptide mix; read-out: IGFR IC50.
Take `COc1cc(N2CCNCC2)ccc1Nc1ncc(F)c(-c2cnc3ccccn23)n1` [Example 73, 5-fluoro-4-imidazo[1,2-a]pyridin-3-yl-N-(2-methoxy-4-piperazin-1-yl-phenyl)pyrimidin-2-amine]: the half-inhibitory concentration (IC50) was found to be 71 nM. Then `COc1cc(N2CCN(S(=O)(=O)N(C)C)CC2)ccc1Nc1ncc(F)c(-c2cnc3ccccn23)n1` [Example 74, 4-[4-[(5-fluoro-4-imidazo[1,2-a]pyridin-3-yl-pyrimidin-2-yl)amino]-3-methoxy-phenyl]-N,N-dimethyl-piperazine-1-sulfonamide], with 42 nM; and `COc1ccc(N2CCNCC2)cc1Nc1ncc(F)c(-c2cnc3ccccn23)n1` [Example 75, 5-fluoro-4-imidazo[1,2-a]pyridin-3-yl-N-(2-methoxy-5-piperazin-1-yl-phenyl)pyrimidin-2-amine], with 172 nM. As to `COc1cc(N2CC[C@@H](N(C)C)C2)ccc1Nc1ncc(F)c(-c2cnc3ccccn23)n1` [Example 76, N-[4-[(3R)-3-dimethylaminopyrrolidin-1-yl]-2-methoxy-phenyl]-5-fluoro-4-imidazo[1,2-a]pyridin-3-yl-pyrimidin-2-amine], the IC50 was determined as 33 nM. Regarding `COc1ccc(N2CCC(OC)CC2)cc1Nc1ncc(F)c(-c2cnc3ccccn23)n1` [Example 77, 5-fluoro-4-imidazo[1,2-a]pyridin-3-yl-N-[2-methoxy-5-(4-methoxy-1-piperidyl)phenyl]pyrimidin-2-amine], the IC50 was found to be 184 nM. Then `COc1cc(C2CCN(C(C)=O)CC2)ccc1Nc1ncc(F)c(-c2cnc3ccccn23)n1` [Example 78, 1-[4-[4-[(5-fluoro-4-imidazo[1,2-a]pyridin-3-yl-pyrimidin-2-yl)amino]-3-methoxy-phenyl]-1-piperidyl]ethanone], with 54 nM; and `COc1cc(N2CCOCC2)ccc1Nc1ncc(F)c(-c2cnc3ccccn23)n1` [Example 79, 5-fluoro-4-imidazo[1,2-a]pyridin-3-yl-N-(2-methoxy-4-morpholino-phenyl)pyrimidin-2-amine], with 56 nM; and `COc1cc(N2CCCC2)ccc1Nc1ncc(F)c(-c2cnc3ccccn23)n1` [Example 80, 5-fluoro-4-imidazo[1,2-a]pyridin-3-yl-N-(2-methoxy-4-pyrrolidin-1-yl-phenyl)pyrimidin-2-amine], with 133 nM. Then `COCCN1CCN(c2ccc(Nc3ncc(F)c(-c4cnc5ccccn45)n3)c(OC)c2)CC1` [Example 82, 5-fluoro-4-imidazo[1,2-a]pyridin-3-yl-N-[2-methoxy-4-[4-(2-methoxyethyl)piperazin-1-yl]phenyl]pyrimidin-2-amine], with 43 nM; and `COc1cc(N2CC[C@H](O)C2)ccc1Nc1ncc(F)c(-c2cnc3ccccn23)n1` [Example 83, (3S)-1-[4-[(5-fluoro-4-imidazo[1,2-a]pyridin-3-yl-pyrimidin-2-yl)amino]-3-methoxy-phenyl]pyrrolidin-3-ol], with 167 nM. `COc1cc(N2CCCOCC2)ccc1Nc1ncc(F)c(-c2cnc3ccccn23)n1` [Example 84, 5-fluoro-4-imidazo[1,2-a]pyridin-3-yl-N-[2-methoxy-4-(1,4-oxazepan-4-yl)phenyl]pyrimidin-2-amine]: the IC50 was 179 nM. On to `COc1cc(N2CC[C@@H](O)C2)ccc1Nc1ncc(F)c(-c2cnc3ccccn23)n1` [Example 85, (3R)-1-[4-[(5-fluoro-4-imidazo[1,2-a]pyridin-3-yl-pyrimidin-2-yl)amino]-3-methoxy-phenyl]pyrrolidin-3-ol], for which the half-maximal inhibitory concentration (IC50) stood at 34 nM.

As to `COc1cc(C2CCNCC2)ccc1Nc1ncc(F)c(-c2cnc3ccccn23)n1` [Example 86, 5-fluoro-4-imidazo[1,2-a]pyridin-3-yl-N-[2-methoxy-4-(4-piperidyl)phenyl]pyrimidin-2-amine], the IC50 was found to be 12 nM. Then `COc1cc(OC[C@H]2CCCN2)ccc1Nc1ncc(F)c(-c2cnc3ccccn23)n1` [Example 87, 5-fluoro-4-imidazo[1,2-a]pyridin-3-yl-N-[2-methoxy-4-[[(2R)-pyrrolidin-2-yl]methoxy]phenyl]pyrimidin-2-amine], with 65 nM; and `COc1cc(N2CCNC(=O)C2)ccc1Nc1ncc(F)c(-c2cnc3ccccn23)n1` [Example 88, 4-[4-[(5-fluoro-4-imidazo[1,2-a]pyridin-3-yl-pyrimidin-2-yl)amino]-3-methoxy-phenyl]piperazin-2-one], with 23 nM. The result for `COc1cc(N2CCN(C[C@H](C)O)CC2)ccc1Nc1ncc(F)c(-c2cnc3ccccn23)n1` [Example 89, (2S)-1-[4-[4-[(5-fluoro-4-imidazo[1,2-a]pyridin-3-yl-pyrimidin-2-yl)amino]-3-methoxy-phenyl]piperazin-1-yl]propan-2-ol] reads 34 nM. For `COc1cc(N2CCN(C[C@@H](C)O)CC2)ccc1Nc1ncc(F)c(-c2cnc3ccccn23)n1` [Example 90, (2R)-1-[4-[4-[(5-fluoro-4-imidazo[1,2-a]pyridin-3-yl-pyrimidin-2-yl)amino]-3-methoxy-phenyl]piperazin-1-yl]propan-2-ol], the IC50 amounted to 37 nM. Then `COc1cc(N2CCN(CC(C)(C)O)CC2)ccc1Nc1ncc(F)c(-c2cnc3ccccn23)n1` [Example 91, 1-[4-[4-[(5-fluoro-4-imidazo[1,2-a]pyridin-3-yl-pyrimidin-2-yl)amino]-3-methoxy-phenyl]piperazin-1-yl]-2-methyl-propan-2-ol], with 35 nM; and `COc1cc(N2CCN(C(C)=O)CC2)ccc1Nc1ncc(OC)c(-c2cnc3ccccn23)n1` [Example 92, 1-[4-[4-[(4-imidazo[1,2-a]pyridin-3-yl-5-methoxy-pyrimidin-2-yl)amino]-3-methoxy-phenyl]piperazin-1-yl]ethanone], with 90 nM; and `COc1cc(N2CCNCC2)ccc1Nc1ncc(OC)c(-c2cnc3ccccn23)n1` [Example 93, 4-imidazo[1,2-a]pyridin-3-yl-5-methoxy-N-(2-methoxy-4-piperazin-1-yl-phenyl)pyrimidin-2-amine], with 27 nM. `COc1cc(C2CCN(C(C)=O)CC2)ccc1Nc1ncc(OC)c(-c2cnc3ccccn23)n1` [Example 94, 1-[4-[4-[(4-imidazo[1,2-a]pyridin-3-yl-5-methoxy-pyrimidin-2-yl)amino]-3-methoxy-phenyl]-1-piperidyl]ethanone]: the IC50 came to 136 nM. The result for `COc1cc(N2CCN(CCO)CC2)ccc1Nc1ncc(OC)c(-c2cnc3ccccn23)n1` [Example 95, 2-[4-[4-[(4-imidazo[1,2-a]pyridin-3-yl-5-methoxy-pyrimidin-2-yl)amino]-3-methoxy-phenyl]piperazin-1-yl]ethanol] reads 60 nM; that for `COc1cc(OC[C@H]2CCCN2)ccc1Nc1ncc(OC)c(-c2cnc3ccccn23)n1` [Example 96, 4-imidazo[1,2-a]pyridin-3-yl-5-methoxy-N-[2-methoxy-4-[[(2R)-pyrrolidin-2-yl]methoxy]phenyl]pyrimidin-2-amine], 127 nM.

For `COc1cc(N2CCN(C(C)=O)CC2)ccc1Nc1ncc(C)c(-c2cnc3ccccn23)n1` [Example 97, 1-[4-[4-[(4-imidazo[1,2-a]pyridin-3-yl-5-methyl-pyrimidin-2-yl)amino]-3-methoxy-phenyl]piperazin-1-yl]ethanone], the IC50 came out at 47 nM. Take `COc1cc(N2CCNCC2)ccc1Nc1ncc(C)c(-c2cnc3ccccn23)n1` [Example 98, 4-imidazo[1,2-a]pyridin-3-yl-N-(2-methoxy-4-piperazin-1-yl-phenyl)-5-methyl-pyrimidin-2-amine]: the IC50 stood at 22 nM. Then `COc1cc(C2CCN(C(C)=O)CC2)ccc1Nc1ncc(C)c(-c2cnc3ccccn23)n1` [Example 99, 1-[4-[4-[(4-imidazo[1,2-a]pyridin-3-yl-5-methyl-pyrimidin-2-yl)amino]-3-methoxy-phenyl]-1-piperidyl]ethanone], with 24 nM; and `COc1cc(N2CCOCC2)ccc1Nc1ncc(C)c(-c2cnc3ccccn23)n1` [Example 100, 4-imidazo[1,2-a]pyridin-3-yl-N-(2-methoxy-4-morpholino-phenyl)-5-methyl-pyrimidin-2-amine], with 57 nM; and `COc1cc(N2CCN(CCO)CC2)ccc1Nc1ncc(C)c(-c2cnc3ccccn23)n1` [Example 101, 2-[4-[4-[(4-imidazo[1,2-a]pyridin-3-yl-5-methyl-pyrimidin-2-yl)amino]-3-methoxy-phenyl]piperazin-1-yl]ethanol], with 235 nM. `COc1cc(OC[C@H]2CCCN2)ccc1Nc1ncc(C)c(-c2cnc3ccccn23)n1` [Example 102, 4-imidazo[1,2-a]pyridin-3-yl-N-[2-methoxy-4-[[(2R)-pyrrolidin-2-yl]methoxy]phenyl]-5-methyl-pyrimidin-2-amine]: the 50% inhibitory concentration (IC50) came out at 54 nM. The result for `COc1cc(OC2CCN(C(C)=O)CC2)ccc1Nc1ncc(C)c(-c2cnc3ccccn23)n1` [Example 103, 1-[4-[4-[(4-imidazo[1,2-a]pyridin-3-yl-5-methyl-pyrimidin-2-yl)amino]-3-methoxy-phenoxy]-1-piperidyl]ethanone] reads 77 nM. Regarding `COc1cc(N2CCN(C[C@H](C)O)CC2)ccc1Nc1ncc(C)c(-c2cnc3ccccn23)n1` [Example 104, (2S)-1-[4-[4-[(4-imidazo[1,2-a]pyridin-3-yl-5-methyl-pyrimidin-2-yl)amino]-3-methoxy-phenyl]piperazin-1-yl]propan-2-ol], the IC50 came out at 29 nM. Then `COc1cc(N2CCN(C[C@@H](C)O)CC2)ccc1Nc1ncc(C)c(-c2cnc3ccccn23)n1` [Example 105, (2R)-1-[4-[4-[(4-imidazo[1,2-a]pyridin-3-yl-5-methyl-pyrimidin-2-yl)amino]-3-methoxy-phenyl]piperazin-1-yl]propan-2-ol], with 26 nM. The result for `COc1cc(N2CCN(CC(C)(C)O)CC2)ccc1Nc1ncc(C)c(-c2cnc3ccccn23)n1` [Example 106, 1-[4-[4-[(4-imidazo[1,2-a]pyridin-3-yl-5-methyl-pyrimidin-2-yl)amino]-3-methoxy-phenyl]piperazin-1-yl]-2-methyl-propan-2-ol] reads 28 nM.

Broadly, the IC50 is the concentration at which inhibition is half-maximal.
